In publication PMC10202359, “Nicotinamide N-methyltransferase (NNMT) regulates the glucocorticoid signaling pathway during the early phase of adipogenesis” (Scientific Reports, 2023):

Assays:
[1] = system: Nnmt expression in 3T3-L1 cells; assay: Nnmt mRNA by real-time PCR in 3T3-L1; assay type: cell-based, mouse; conditions: post-confluent 3T3-L1 treated 48 h with individual DIM components, vs unstimulated cells
Method: 3T3-L1 Mouse Embryonic Fibroblasts were purchased from American Type Culture Collection (ATCC CL-173). The cells were propagated and maintained in Dulbecco’s modified Eagle’s medium (DMEM, Gibco) supplemented with 10% calf serum (FCS) at 37 °C in 5% CO2 atmosphere. Subconfluents cells were expanded and utilized for the subsequent experiments at the passages 3–6. To induce differentiation, 2-day post-confluent 3T3-L1 pre-adipocytes were cultured for 48 h with DIM (DMEM supplemented with 10% fetal bovine serum (FBS), 1.0 µM Dexamethasone (G. Biosciences), […] Insulin (Sigma) and 0.5 mM IBMX (Sigma). Two days after induction the DIM medium was removed and the cells were maintained in DMED supplemented with 10% FBS and […] Insulin, which was replaced every 48 h, until the cells became fully differentiated (8–10 days after induction). C3H10T1/2 cells were purchased from American Type Culture Collection (ATCC, clone 8, CCL-226, were grown and induced to differentiate following the same protocol, with cell cultures < 3 passages. […] Real-time PCRs were performed using SYBR Green PCR Master Mix (Applied Biosystems) with an ABI PRISM 7900HT Sequence Detection System (Applied Biosystems). RT-PCR data were normalized to GAPDH and expressed relative to control (ddCt method).

[2] = molecular target: T1, DNMT3a (Homo sapiens, UniProt Q9Y6K1); assay: Methyltransferase Hot Spot radioisotope assay, DNMT3a; assay type: biochemical
T1 construct: purchased Reaction Biology Corporation
Method: (§1) CC-410 was screened in biochemical assays for activity against a panel of 11 methyltransferases (MT) by using the radioisotope (3H-AdoMet) based MT Hot Spot Assay. All the assays were performed by Reaction Biology Corporation (RBC, Malven, PA, USA). Briefly CC-410 was incubated with the selected MTs, corresponding substrates, and radiolabeled SAM (S-Adenosyl-L-[methyl-3 H]methionine). The specific MTs assessed, and the corresponding substrates are as follows: DNMT1- Poly dl-dC, DNMT3a- Lambda DNA, DNMT3b- Lambda DNA, DOT1L- Nucleosomes, EZH2 Complex- Core Histone, METTL21A- HSPA8-[CTD], NRMT1- RCC1, PRMT3- Histone H4, PRMT5/MEP50- Histone H2A, SET1b -Core Histone Complex and SMYD2- Nucleosomes. Reaction mixtures were incubated and spotted onto filter papers, which were then washed to remove unreacted SAM, leaving the bound radiolabeled product. Detection of the radiolabeled, methylated product was performed via a nanoliter-scale radioisotope filter binding platform. […] For each assay, control compounds were included as positive controls for enzyme function and assay reproducibility. […] IC50 was calculated by non-linear least square fitting dose–response curve.

[3] = molecular target: T2, DNMT3b (Homo sapiens, UniProt Q9UBC3); assay: Methyltransferase Hot Spot radioisotope assay, DNMT3b; assay type: biochemical
T2 construct: purchased Reaction Biology Corporation
Method: as §1

[4] = molecular target: METTL21A (Homo sapiens, UniProt Q8WXB1); assay: Methyltransferase Hot Spot radioisotope assay, METTL21A; assay type: biochemical; conditions: 10-dose, threefold dilution; CC-410 from 300 μM, control from 100 μM; substrate HSPA8-[CTD]
Method: as §1, with “The specific MTs assessed, and the corresponding substrates are as follows: DNMT1- Poly dl-dC, DNMT3a- Lambda DNA, DNMT3b- Lambda DNA, DOT1L- Nucleosomes, EZH2 Complex- Core Histone, METTL21A- HSPA8-[CTD], NRMT1- RCC1, PRMT3- Histone H4, PRMT5/MEP50- Histone H2A, SET1b -Core Histone Complex and SMYD2- Nucleosomes.” left out

[5] = molecular target: T3, NRMT1 (Homo sapiens, UniProt Q9BV86); assay: Methyltransferase Hot Spot radioisotope assay, NRMT1; assay type: biochemical; conditions: 10-dose, threefold dilution; CC-410 from 300 μM, control from 100 μM; substrate RCC1
T3 sequence (Q9BV86 1-223): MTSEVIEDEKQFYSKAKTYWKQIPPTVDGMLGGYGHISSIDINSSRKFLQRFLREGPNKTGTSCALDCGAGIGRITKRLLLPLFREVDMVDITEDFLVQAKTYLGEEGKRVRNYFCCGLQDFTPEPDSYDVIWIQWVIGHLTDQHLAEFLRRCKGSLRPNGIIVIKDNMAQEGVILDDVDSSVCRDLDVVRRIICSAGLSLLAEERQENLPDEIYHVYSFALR
Method: as §1

[6] = molecular target: PRMT3 (Homo sapiens, UniProt O60678); assay: Methyltransferase Hot Spot radioisotope assay, PRMT3; assay type: biochemical; conditions: 10-dose, threefold dilution; CC-410 from 300 μM, control from 100 μM; substrate Histone H4; read-out: IC50* (M) PRMT3
Method: as §1, with “The specific MTs assessed, and the corresponding substrates are as follows: DNMT1- Poly dl-dC, DNMT3a- Lambda DNA, DNMT3b- Lambda DNA, DOT1L- Nucleosomes, EZH2 Complex- Core Histone, METTL21A- HSPA8-[CTD], NRMT1- RCC1, PRMT3- Histone H4, PRMT5/MEP50- Histone H2A, SET1b -Core Histone Complex and SMYD2- Nucleosomes.” left out

[7] = molecular target: T4, SET1b Complex (Homo sapiens, UniProt Q9UPS6); assay: Methyltransferase Hot Spot radioisotope assay, SET1b Complex; assay type: biochemical; conditions: 10-dose, threefold dilution; CC-410 from 300 μM, control from 100 μM; substrate Core Histone; read-out: IC50* (M) SET1b Complex
T4 construct: purchased Reaction Biology Corporation
Method: as §1

Chain of PRMT3 (O60678 whole entry, species assumed): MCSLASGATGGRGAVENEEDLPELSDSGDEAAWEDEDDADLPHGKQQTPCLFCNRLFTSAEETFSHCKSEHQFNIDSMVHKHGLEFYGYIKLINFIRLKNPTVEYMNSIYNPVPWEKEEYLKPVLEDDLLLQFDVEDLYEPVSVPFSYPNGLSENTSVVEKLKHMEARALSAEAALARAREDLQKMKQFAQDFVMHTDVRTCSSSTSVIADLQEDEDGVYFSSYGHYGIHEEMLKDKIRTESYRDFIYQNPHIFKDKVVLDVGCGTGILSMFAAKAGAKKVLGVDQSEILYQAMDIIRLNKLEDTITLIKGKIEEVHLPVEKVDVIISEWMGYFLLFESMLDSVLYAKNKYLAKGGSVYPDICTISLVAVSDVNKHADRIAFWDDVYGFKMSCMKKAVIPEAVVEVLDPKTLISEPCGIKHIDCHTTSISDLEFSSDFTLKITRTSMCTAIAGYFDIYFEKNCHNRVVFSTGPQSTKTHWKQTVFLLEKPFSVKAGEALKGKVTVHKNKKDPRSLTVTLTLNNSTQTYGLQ
T1 sequence (Q9Y6K1 whole entry, looked up, species assumed): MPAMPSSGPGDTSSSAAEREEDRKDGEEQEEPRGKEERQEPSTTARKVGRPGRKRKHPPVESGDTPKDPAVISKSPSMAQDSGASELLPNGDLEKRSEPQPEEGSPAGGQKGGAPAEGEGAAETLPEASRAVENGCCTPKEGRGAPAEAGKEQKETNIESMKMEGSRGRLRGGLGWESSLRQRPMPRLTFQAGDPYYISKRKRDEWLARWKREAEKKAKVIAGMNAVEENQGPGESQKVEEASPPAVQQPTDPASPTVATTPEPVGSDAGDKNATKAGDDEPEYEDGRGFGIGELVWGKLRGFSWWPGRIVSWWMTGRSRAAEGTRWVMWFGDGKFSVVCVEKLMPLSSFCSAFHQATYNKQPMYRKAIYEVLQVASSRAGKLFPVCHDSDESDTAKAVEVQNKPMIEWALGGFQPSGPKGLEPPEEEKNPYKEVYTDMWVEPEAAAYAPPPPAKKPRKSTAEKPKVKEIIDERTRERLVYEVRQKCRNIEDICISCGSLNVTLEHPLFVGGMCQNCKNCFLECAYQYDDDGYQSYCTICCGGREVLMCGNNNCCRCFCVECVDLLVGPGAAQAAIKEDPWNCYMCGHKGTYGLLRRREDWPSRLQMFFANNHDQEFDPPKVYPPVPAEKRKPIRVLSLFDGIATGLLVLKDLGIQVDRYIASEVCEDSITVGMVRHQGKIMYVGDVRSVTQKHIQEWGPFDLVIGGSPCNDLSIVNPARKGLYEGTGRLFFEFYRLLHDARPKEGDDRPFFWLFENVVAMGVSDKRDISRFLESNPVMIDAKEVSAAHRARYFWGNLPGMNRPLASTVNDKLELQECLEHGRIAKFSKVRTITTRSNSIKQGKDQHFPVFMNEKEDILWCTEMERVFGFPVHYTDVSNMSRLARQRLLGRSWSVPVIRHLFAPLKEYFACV
Chain of METTL21A (Q8WXB1 whole entry, species assumed): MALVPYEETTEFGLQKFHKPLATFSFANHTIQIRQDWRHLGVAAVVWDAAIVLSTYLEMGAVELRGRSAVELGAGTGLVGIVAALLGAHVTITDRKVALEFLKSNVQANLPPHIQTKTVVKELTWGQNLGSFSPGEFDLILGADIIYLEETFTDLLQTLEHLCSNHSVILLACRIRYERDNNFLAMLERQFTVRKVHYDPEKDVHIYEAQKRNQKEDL

Molecule: C[C@@H]1C[C@H]2[C@@H]3CCC4=CC(=O)C=C[C@]4(C)[C@@]3(F)[C@@H](O)C[C@]2(C)[C@@]1(O)C(=O)CO [DEX, dexamethasone]
- Nnmt expression (mRNA, RT-PCR) [1]: induction comparable with that of the whole cocktail

Molecule: CC(C)Cn1c(=O)n(C)c(=O)c2[nH]cnc21 [IBMX, 3-isobutyl-1-methylxanthine]
- Nnmt expression (mRNA, RT-PCR) [1]: neither insulin nor IBMX impacted Nnmt expression significantly

Molecule: Nc1ncnc2c1ncn2[C@@H]1O[C@H](CSCC[C@H](N)C(=O)O)[C@@H](O)[C@H]1O [SAH, S-(5′-Adenosyl)-L-homocysteine, reference compound]
- IC50 [2]: 511 nM
- IC50 [3]: 259 nM
- IC50 [4]: 76100 nM
- IC50 [5]: 1680 nM
- IC50 [6]: 3.88e-06 M
- IC50 [7]: 2e-05 M

Molecule: insulin: component of the differentiation-inducing medium (DIM)
- Nnmt expression (mRNA, RT-PCR) [1]: neither insulin nor IBMX impacted Nnmt expression significantly
